# Measurements published in US20240067604A1, “COMBINATIONS OF IRS/STAT3 DUAL MODULATORS AND ANTI PD-1/PD-L1 ANTIBODIES FOR TREATING CANCER” (TYRNOVO LTD., priority 2017, published 2024).
# Test system: esophagogastric junction adenocarcinoma patient-derived xenograft (PDX)
# Test: Patient-derived xenograft (PDX) of esophagogastric junction adenocarcinoma in NodScid mice supplemented with PBMCs from the same patient (double autologous)
# Format: in vivo, NodScid mice (human tumor and PBMCs)
# Conditions: PDX SC in NodScid mice + patient PBMCs; Compound 4 70 mg/kg IV and/or Keytruda 6 mg/kg IP on days 0, 5 and 11; treatment started at ~160 mm^3; sacrificed on day 18
# Text: Patient-derived xenograft (PDX) of esophagogastric junction adenocarcinoma biopsy subcutaneous (SC) implanted into NodScid mice. At the first day of treatment peripheral blood mononuclear cells (PBMCs) from the same patient were intravenous injected to the mice (double autologous).
# Fresh human primary esophagogastric junction adenocarcinoma biopsy was subcutaneously (SC) implanted into NSG mice (P0).
# Subcutaneous implantation of human primary tumor biopsy into NodScid mice.
# The tumor (P3) was extracted from the mice, measured, cut into small pieces of 1-2 mm and transferred into the gentleMACS Tube containing the sterile saline. […] Animals were observed and monitored for any discomfort and immobility day by day.
# Isolation of human PBMCs: Human PBMCs were isolated from heparinized venous blood samples of the same esophagus adenocarcinoma patient by density gradient centrifugation method using Ficol Histopaque (Sigma). […] The total cell number and the number of viable cells were evaluated. […] On the day of injection, the cells were thawed, washed twice in order to dilute possible DMSO residues by the addition of PBS and centrifugation (600 g for 10 minutes, RT) and viable cells were counted. […]
# The length (l) and the width (w) of the tumors were measured 4-5 times a week and the volumes of the tumors were calculated as follows: v=lw^2/2. […]
structure (smiles),measurement,value
Oc1cc(CNC(=S)/C=C/c2ccc(O)c(O)c2Br)cc(O)c1O [Compound 4],"Tumor response / tumor progression (tumor volume, FIG. 1)",no response
